This data set deals with T1, GCase in fibroblasts bearing the N370S/RecNcil mutation (Homo sapiens, UniProt P04062, A495P/L483P/N409S).
T1 construct: fibroblasts derived from Gaucher patients bearing the N370S/RecNcil and L444P/L444P mutations; host or cells: fibroblasts from Gaucher disease patients, N370S/RecNcil
T1 sequence (P04062 40-536 N409S): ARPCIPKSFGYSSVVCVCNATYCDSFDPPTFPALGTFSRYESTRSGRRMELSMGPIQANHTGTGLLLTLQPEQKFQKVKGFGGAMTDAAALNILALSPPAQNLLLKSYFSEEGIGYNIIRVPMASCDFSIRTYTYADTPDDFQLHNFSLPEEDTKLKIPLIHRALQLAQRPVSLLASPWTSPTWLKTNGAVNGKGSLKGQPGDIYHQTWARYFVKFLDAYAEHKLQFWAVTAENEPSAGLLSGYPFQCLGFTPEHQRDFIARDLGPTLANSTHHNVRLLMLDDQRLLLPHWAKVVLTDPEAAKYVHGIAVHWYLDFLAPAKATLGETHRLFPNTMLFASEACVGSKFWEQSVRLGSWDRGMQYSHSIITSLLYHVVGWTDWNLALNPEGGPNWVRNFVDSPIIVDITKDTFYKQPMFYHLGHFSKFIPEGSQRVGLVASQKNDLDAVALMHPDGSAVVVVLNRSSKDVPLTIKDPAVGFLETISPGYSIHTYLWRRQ
Description: Pharmacological chaperoning activity in N370S/RecNcil Gaucher fibroblasts. It is filed as cell-based. The settings on record: for cell viability: 50 µM and 100 µM, 4 days; for GCase enzymatic activity rescue: 4 days incubation. As to the method: The ability of compounds 14 and 15 to enhance the activity of GCase after incubation (4 days) with fibroblasts bearing the selected mutations was evaluated. The experiments were performed using fibroblasts derived from Gaucher patients bearing the N370S/RecNcil and L444P/L444P mutations (see the Supporting Information section).
Fibroblasts with the N370S/RecNcil (or L444P/L444P) mutation from Gaucher disease patients were obtained from the “Cell line and DNA Biobank from patients affected by Genetic Diseases” (Gaslini Hospital, Genova, Italy). Fibroblast cells (15.0 × 10^4) were seeded in T25 flasks with DMEM supplemented with fetal bovine serum (10%), penicillin/streptomycin (1%), and glutamine (1%) and incubated at 37 °C with 5% CO2 for 24 h. The medium was removed, and fresh medium containing the compounds (14, 15 and 33·HCl) was added to the cells and incubated for 4 days. The medium was removed, and the cells were washed with PBS and detached with trypsin to obtain cell pellets, which were washed four times with PBS, frozen, and lysed by sonication in water. Enzyme activity was measured as reported above. Reported data are mean S.D. (n = 2).
Pharmacological chaperoning activity
Figure S50. Fibroblasts derived from GD patients bearing N370S/RecNcil mutations were incubated without (control, ctrl) or with 7 different concentrations (10 nM, 50 nM, 100 nM, 1 μM, 10 μM, 50 μM, 100 μM) of compounds 14 and 15. After 4 days, the flasks containing cells incubated with 50 µM and 100 µM […]
other concentrations, the GCase activity was determined in lysates from treated fibroblasts. Reported data are mean S.D. (n=2).
(also on this page, place not known: beta glucosidase activity (nmol/mg/h) beta glucosidase activity (nmol/mg/h)) […]
Figure S51. Fibroblasts derived from GD patients bearing N370S/RecNcil mutations were incubated without (control, ctrl) or with […] different concentrations (5 nM, 10 nM, 100 nM, 1 μM, 10 μM, 30 μM) of compound 33.HCl. After 4 days, the GCase activity was determined in lysates from treated fibroblasts. Reported […]
(also on this page, place not known: beta glucosidase activity (nmol/mg/h))

“Also recorded” adds a separate entry of the source.

`CCCCCCCC[C@@H]1[C@@H](O)[C@H](O)[C@H](O)CN1CCCCCCCC` [compound 15, (2R,3R,4R,5R)-1,2-Dioctylpiperidine-3,4,5-triol]: the cell viability result is “low cell viability”. Under “5 nM to 10 μM”, the “GCase enzymatic activity rescue” value is reported as “no enzymatic activity rescue; also recorded: no GCase activity enhancements”.

On to `CCCCCCCC[C@@H]1[C@@H](O)[C@H](O)[C@H](O)CN1C(CCCCCCC)CCCCCCC.Cl` [compound 33·HCl, (2R,3R,4R,5R)-2-Octyl-1-(pentadecan-8-yl)-piperidine-3,4,5-triol Hydrochloride], for which the “GCase enzymatic activity rescue” value (5 nM to 30 μM) is “no enzymatic activity rescue; also recorded: no GCase activity enhancements”.

Turning to `CCCCCCCC[C@H]1[C@@H](O)[C@H](O)[C@H](O)CN1CCCCCCCC` [compound 14, (2S,3R,4R,5R)-1,2-Dioctylpiperidine-3,4,5-triol], the cell viability result is recorded as “low cell viability”. For the same compound, the “GCase enzymatic activity rescue” value (5 nM to 10 μM) is “no enzymatic activity rescue; also recorded: no GCase activity enhancements”.
